Read-outs that look alike come from different tables or passages of the source. *1 amine or outer side, *2 acyl side, *3 side chain or, on linkers, in order; H or OH if unused. Where a SMILES comes first, the peptide text is derived from it. Bridges are numbered along the chain shown (N, C = ends). [ ]: non-standard residue; d: D form. The star is where a group is joined. ξ: configuration not given here. X5 = O=C([C@H](CCC[C@@H]1CC(F)(F)CN1)N[*:1])[*:2]; X1 = COc1cc(C[C@H](N[*:1])C(=O)[*:2])ccc1C(=O)NO; Pro(4,4-F2)ψ(CH2) = FC1(F)CN[C@H](C*)C1; Propyl(2,2-Me2,3-OH) = CC(C)(CO)C*; hhPhe = N[C@@H](CCCc1ccccc1)C(=O)O; NMeF = CN[C@@H](Cc1ccccc1)C(=O)O; NMeGABA = CN(CCCC(=O)[*:2])[*:1]; NMeI = CC[C@H](C)[C@H](NC)C(=O)O; hPhe = N[C@@H](CCc1ccccc1)C(=O)O; 3Pal = N[C@@H](Cc1cccnc1)C(=O)O; NMeD = CN[C@@H](CC(=O)O)C(=O)O; CH2CH(OH)CF3 = OC(C*)C(F)(F)F; NMeL = CN[C@@H](CC(C)C)C(=O)O; Propyl(2R-OH) = C[C@@H](O)C*; Butyl(3S-OH) = C[C@H](O)CC*; NMeV = CN[C@H](C(=O)O)C(C)C; NMeAbu = CC[C@H](NC)C(=O)O; NMeA = CN[C@@H](C)C(=O)O; Piperidide = C1CCN(*)CC1; dAbu = CC[C@@H](N)C(=O)O; dNMeA = CN[C@H](C)C(=O)O; NBuGly = CCCCNCC(=O)O; NPrGly = CCCNCC(=O)O; ξS = NC(CO)C(=O)O; Sar = CNCC(=O)O; tBu = CC(C)(C)*
What was measured:
in vitro = conditions: human, Caco-2, Caco-2 (cm/sec)
[1] = Membrane permeability test of cyclic peptides (Caco-2, modified/improved method of WO 2018/124162); conditions: human
[2] = Caco-2, Caco-2 (membrane permeability), Table 10, cyclic peptides containing Ser(S-4-F2-Pyrro-Me) (G) or Nva(2-R-4-F2-Pyrro) (H)
[3] = Caco-2, Caco-2 (cm/sec), membrane permeability of cyclic peptides, Caco-2

Structure (SMILES) | Papp (in vitro) [×10⁻⁶ cm/s] | Caco-2 (Caco-2) [cm/s] | also measured
CCCCN1CC(=O)N(C)[C@@H](CC(C)C)C(=O)N[C@@H](COC(C)(C)C)C(=O)N(C)[C@@H]([C@@H](C)CC)C(=O)N(C)[C@@H](CC(C)C)C(=O)N[C@H](C(=O)N2CCCCC2)CC(=O)N[C@H](C)C(=O)N(C)[C@@H](Cc2ccccc2)C(=O)N[C@@H](Cc2ccc(C(=O)NO)c(OC)c2)C(=O)N(C)[C@@H](CC(C)C)C(=O)N[C@@H]([C@@H](C)O)C1=O [AP258] ([dA][NMeF][X1][NMeL]T[NBuGly][NMeL]S(tBu)[NMeI][NMeL]D-Piperidide; lactam N-11) | 0.03 | – | Caco-2 (Caco-2; human): 2e-08 cm/s
CC(C)C[C@@H]1NC(=O)[C@H](Cc2ccccc2)N(C)C(=O)[C@@H]2CCCN2C(=O)C[C@@H](C(=O)N2CCCCC2)N(C)C(=O)[C@H](Cc2ccccc2)N(C)C(=O)[C@H](Cc2ccccc2)N(C)C(=O)[C@H](COC(C)(C)C)NC(=O)[C@H](C(C)C)N(C)C(=O)CN(C)C(=O)[C@H]([C@@H](C)O)NC(=O)[C@H](CC(C)C)N(C)C1=O [pd196] (P[NMeF]L[NMeL]T[Sar][NMeV]S(tBu)[NMeF][NMeF][NMeD]-Piperidide; lactam N-11) | 4 | 4e-06 | –
CC(C)C[C@@H]1NC(=O)[C@H](Cc2ccccc2)N(C)C(=O)[C@H]2CCCN2C(=O)C[C@@H](C(=O)N2CCCCC2)N(C)C(=O)[C@H](Cc2ccccc2)N(C)C(=O)[C@H](Cc2ccccc2)N(C)C(=O)[C@H](COC(C)(C)C)NC(=O)[C@H](C(C)C)N(C)C(=O)CN(C)C(=O)[C@H]([C@@H](C)O)NC(=O)[C@H](CC(C)C)N(C)C1=O [pd200] ([dP][NMeF]L[NMeL]T[Sar][NMeV]S(tBu)[NMeF][NMeF][NMeD]-Piperidide; lactam N-11) | 2.6 | 2.6e-06 | –
CC(C)C[C@@H]1NC(=O)[C@H](CC(C)C)N(C)C(=O)[C@H](C)N(C)C(=O)C[C@@H](C(=O)N2CCCCC2)NC(=O)[C@H](CC(C)C)N(C)C(=O)[C@H](Cc2ccccc2)N(C)C(=O)[C@H](Cc2ccccc2)N(C)C(=O)[C@H]([C@@H](C)O)NC(=O)[C@H](Cc2ccccc2)N(C)C1=O [pd211] ([NMeA][NMeL]L[NMeF]T[NMeF][NMeF][NMeL]D-Piperidide; lactam N-9) | – | – | Caco-2 (Caco-2; human): 1.4e-05 cm/s
CCCN1CC(=O)N(C)[C@@H](Cc2ccccc2)C(=O)N[C@@H]([C@@H](C)CC)C(=O)N(C)[C@@H](Cc2ccccc2)C(=O)N[C@@H]([C@@H](C)O)C(=O)N(C)CC(=O)N(C)[C@@H](Cc2ccccc2)C(=O)N(C)[C@@H](CC(C)C)C(=O)N[C@@H](COC(C)(C)C)C(=O)N(C)[C@@H](C(C)C)C(=O)N[C@H](C(=O)N2CCCCC2)CC1=O [pd195] ([NPrGly][NMeF]I[NMeF]T[Sar][NMeF][NMeL]S(tBu)[NMeV]D-Piperidide; lactam N-11) | 5 | 5e-06 | –
CC(C)C[C@H]1C(=O)N[C@H](C(=O)N2CCCCC2)CC(=O)N(C)[C@@H](C)C(=O)N[C@@H](CCCc2ccccc2)C(=O)N(C)[C@@H](CC(C)C)C(=O)N(C)[C@@H](Cc2ccccc2)C(=O)N[C@@H](C)C(=O)N(C)[C@@H](Cc2ccccc2)C(=O)N(C)[C@@H](C(C)C)C(=O)N[C@@H]([C@@H](C)O)C(=O)N(C)CC(=O)N1C [pd191] ([NMeA][hhPhe][NMeL][NMeF]A[NMeF][NMeV]T[Sar][NMeL]D-Piperidide; lactam N-11) | 1.5 | 1.5e-06 | –
CC(C)C[C@H]1C(=O)N[C@@H](COC(C)(C)C)C(=O)N(C)[C@@H](Cc2ccccc2)C(=O)N(C)[C@@H](C(C)C)C(=O)N[C@H](C(=O)N2CCCCC2)CC(=O)N[C@H](C)C(=O)N(C)[C@@H](Cc2ccccc2)C(=O)NC(COc2cccc(Cl)c2)C(=O)N(C)[C@@H](C(C)C)C(=O)N[C@@H]([C@@H](C)O)C(=O)N(C)CC(=O)N1C (some centres unmarked) [pd185] | 2.2 | 2.2e-06 | –
CC(C)C[C@@H]1NC(=O)[C@H](Cc2ccccc2)N(C)C(=O)[C@@H](C)N(C)C(=O)C[C@@H](C(=O)N2CCCCC2)N(C)C(=O)[C@H](Cc2ccccc2)N(C)C(=O)[C@H](Cc2ccccc2)N(C)C(=O)[C@H](COC(C)(C)C)NC(=O)[C@H](C(C)C)N(C)C(=O)CN(C)C(=O)[C@H]([C@@H](C)O)NC(=O)[C@H](CC(C)C)N(C)C1=O [pd199] ([dNMeA][NMeF]L[NMeL]T[Sar][NMeV]S(tBu)[NMeF][NMeF][NMeD]-Piperidide; lactam N-11) | 2.6 | 2.6e-06 | –
CC(C)C[C@@H]1NC(=O)[C@H](Cc2ccccc2)N(C)C(=O)[C@H](C)N(C)C(=O)C[C@@H](C(=O)N2CCCCC2)NC(=O)[C@H](C(C)C)N(C)C(=O)[C@H](Cc2ccccc2)N(C)C(=O)[C@H](COC(C)(C)C)NC(=O)[C@H](CC(C)C)N(C)C(=O)CN(C)C(=O)[C@H](Cc2cccnc2)NC(=O)[C@H](CC(C)C)N(C)C1=O [pd197] ([NMeA][NMeF]L[NMeL][3Pal][Sar][NMeL]S(tBu)[NMeF][NMeV]D-Piperidide; lactam N-11) | 3 | 3e-06 | –
CC(C)C[C@H]1C(=O)N(C)[C@@H](Cc2ccccc2)C(=O)N[C@@H](COC(C)(C)C)C(=O)N(C)[C@@H](C)C(=O)N[C@H](C(=O)N2CCCCC2)CC(=O)N(C)[C@@H](C)C(=O)N(C)[C@@H](Cc2ccccc2)C(=O)N[C@@H](CCc2ccccc2)C(=O)N(C)[C@@H](CC(C)C)C(=O)N[C@@H]([C@@H](C)O)C(=O)N(C)CC(=O)N1C [pd183] ([NMeA][NMeF][hPhe][NMeL]T[Sar][NMeL][NMeF]S(tBu)[NMeA]D-Piperidide; lactam N-11) | 2.1 | 2.1e-06 | –
CCCCN1CC(=O)N(C)[C@@H](CC(C)C)C(=O)N[C@@H](COC(C)(C)C)C(=O)N(C)[C@@H](Cc2ccccc2)C(=O)N(C)[C@@H](CC(C)C)C(=O)N[C@H](C(=O)N2CCCCC2)CC(=O)N[C@H](C(C)C)C(=O)N(C)[C@@H](Cc2ccccc2)C(=O)N[C@@H](COCC(O)C(F)(F)F)C(=O)N(C)[C@@H](CC(C)C)C(=O)N[C@@H]([C@@H](C)O)C1=O (stereo partly drawn) [Compound C01] ([dV][NMeF]S(CH2CH(OH)CF3)[NMeL]T[NBuGly][NMeL]S(tBu)[NMeF][NMeL]D-Piperidide; lactam N-11) | – | – | Caco-2 (membrane permeability) (Caco-2; human): 0.15 ×10⁻⁶ cm/s
CCCCN1CC(=O)N(C)[C@@H](CC(C)C)C(=O)N[C@@H](CCC[C@@H]2CC(F)(F)CN2)C(=O)N(C)[C@@H](CC(C)C)C(=O)N(C)[C@@H](CC(C)C)C(=O)N[C@H](C(=O)N2CCCCC2)CC(=O)N[C@H](CC)C(=O)N(C)[C@@H](Cc2ccccc2)C(=O)N[C@@H](CC(C)C)C(=O)N(C)[C@@H](CC)C(=O)N[C@@H]([C@@H](C)O)C1=O [Compound H01] ([dAbu][NMeF]L[NMeAbu]T[NBuGly][NMeL][X5][NMeL][NMeL]D-Piperidide; lactam N-11) | – | – | Papp [1, 2]: 0.25 ×10⁻⁶ cm/s
CC[C@H](C)[C@@H]1NC(=O)[C@H](CC(C)C)N(C)C(=O)[C@H](COC(C)(C)C)NC(=O)[C@H](Cc2ccccc2)N(C)C(=O)[C@H](Cc2ccccc2)N(C)C(=O)[C@H](COC[C@@H](C)O)NC(=O)[C@H](CC(C)C)N(C)C(=O)CCCN(C)C(=O)C[C@@H](C(=O)N2CCCCC2)NC(=O)[C@H](CC(C)C)N(C)C(=O)[C@H](CC(C)C)N(C)C1=O [AP84] ([NMeGABA][NMeL]S(Propyl(2R-OH))[NMeF][NMeF]S(tBu)[NMeL]I[NMeL][NMeL]D-Piperidide; lactam N-11) | – | – | Papp [1, 3]: 0.58 ×10⁻⁶ cm/s
CC(C)C[C@@H]1NC(=O)[C@H](C(C)C)N(C)C(=O)C[C@@H](C(=O)N2CCCCC2)NC(=O)[C@H](CC(C)C)N(C)C(=O)CN(C)C(=O)[C@H]([C@@H](C)O)NC(=O)[C@H](C(C)C)N(C)C(=O)[C@H](Cc2ccccc2)N(C)C(=O)C(COCC[C@H](C)O)NC(=O)[C@H](Cc2ccccc2)N(C)C(=O)[C@H](CC(C)C)N(C)C1=O (stereo partly drawn) [AP104] ([NMeV]L[NMeL][NMeF][ξS](Butyl(3S-OH))[NMeF][NMeV]T[Sar][NMeL]D-Piperidide; lactam N-11) | – | – | Papp [1, 3]: 2.9 ×10⁻⁶ cm/s
CC(C)C[C@@H]1NC(=O)[C@H](Cc2ccccc2)N(C)C(=O)[C@H](CC(C)C)N(C)C(=O)[C@H](COCC(C)(C)CO)NC(=O)[C@H](CC(C)C)N(C)C(=O)C[C@@H](C(=O)N2CCCCC2)NC(=O)[C@H](CC(C)C)N(C)C(=O)CN(C)C(=O)[C@H]([C@@H](C)O)NC(=O)[C@H](CC(C)C)N(C)C(=O)[C@H](Cc2ccccc2)N(C)C1=O [AP125] ([NMeL]S(Propyl(2,2-Me2,3-OH))[NMeL][NMeF]L[NMeF][NMeL]T[Sar][NMeL]D-Piperidide; lactam N-11) | – | – | Papp [1, 3]: 0.74 ×10⁻⁶ cm/s
CCCCN1CC(=O)N(C)[C@@H](CC)C(=O)N[C@@H](COC[C@@H]2CC(F)(F)CN2)C(=O)N(C)[C@@H](Cc2ccccc2)C(=O)N(C)[C@@H](CC)C(=O)N[C@H](C(=O)N2CCCCC2)CC(=O)N[C@H](CC(C)C)C(=O)N(C)[C@@H](CC(C)C)C(=O)N[C@@H](C(C)C)C(=O)N(C)[C@@H](CC(C)C)C(=O)N[C@@H]([C@@H](C)O)C1=O [Compound G02] ([dL][NMeL]V[NMeL]T[NBuGly][NMeAbu]S(Pro(4,4-F2)ψ(CH2))[NMeF][NMeAbu]D-Piperidide; lactam N-11) | – | – | Papp [1, 2]: 0.4 ×10⁻⁶ cm/s
CCCCN1CC(=O)N(C)[C@@H](CC(C)C)C(=O)N[C@@H](COC(C)(C)C)C(=O)N(C)[C@@H](Cc2ccccc2)C(=O)N(C)[C@@H](CC(C)C)C(=O)N[C@H](C(=O)N2CCCCC2)CC(=O)N[C@H](C(C)C)C(=O)N(C)[C@@H](Cc2ccccc2)C(=O)N[C@@H](COCC(O)C(F)(F)F)C(=O)N(C)[C@@H](CC(C)C)C(=O)N[C@@H]([C@@H](C)O)C1=O (stereo partly drawn) [Compound D01] ([dV][NMeF]S(CH2CH(OH)CF3)[NMeL]T[NBuGly][NMeL]S(tBu)[NMeF][NMeL]D-Piperidide; lactam N-11) | – | – | Caco-2 (membrane permeability) (Caco-2; human): 0.07 ×10⁻⁶ cm/s
